Columns and labels:
Type in all cases: in vivo
[1] = test system: Matricaria inodora; test: Pre-emergence test; conditions: 3 weeks after treatment
Method in brief: (§1)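 Pre-emergence spray onto horticultural loam freshly sown with seeds, using acetone solutions containing 0.4% TRITON X-155 diluted in water. Applied at 0.013, 0.025, 0.100 or 0.400 kg active material per hectare in 900 litres per hectare. Pots rated 2 to 4 weeks after treatment against untreated sown controls.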

[2] = test system: Cassia obtusifolia; test: Pre-emergence test; conditions: 3 weeks after treatment
Method in brief: as §1

[3] = test system: Alopecurus myosuroides; test: Pre-emergence test; conditions: 3 weeks after treatment
Method in brief: as §1

[4] = test system: Setaria viridis; test: Pre-emergence test; conditions: 3 weeks after treatment
Method in brief: as §1

[5] = test system: Ipomoea hederacea; test: Pre-emergence test; conditions: 3 weeks after treatment
Method in brief: as §1

[6] = test system: Zea mays; test: Pre-emergence test; conditions: 3 weeks after treatment
Method in brief: as §1

[7] = test system: Echinochloa crus-galli; test: Pre-emergence test; conditions: 3 weeks after treatment
Method in brief: as §1

[8] = test system: Glycine max; test: Pre-emergence test; conditions: 3 weeks after treatment
Method in brief: as §1

[9] = test system: Triticum aestivum; test: Pre-emergence test; conditions: 3 weeks after treatment
Method in brief: as §1

[10] = test system: Ambrosia artemisifolia; test: Pre-emergence test; conditions: 3 weeks after treatment
Method in brief: as §1

[11] = test system: Abutilon theophrasti; test: Pre-emergence test; conditions: 3 weeks after treatment
Method in brief: as §1

[12] = test system: Matricaria inodora; test: Post-emergence herbicidal activity test; conditions: 2-4 weeks after treatment
Method in brief: (§2)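 Post-emergence spray of acetone solutions diluted with water, at about 0.025 to 0.4 kg test compound per hectare per pot. Plants kept on greenhouse benches and visually rated 2 to 4 weeks after treatment on a rating scale.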

[13] = test system: Alopecurus myosuroides; test: Post-emergence herbicidal activity test; conditions: 2-4 weeks after treatment
Method in brief: as §2

[14] = test system: Setaria viridis; test: Post-emergence herbicidal activity test; conditions: 2-4 weeks after treatment
Method in brief: as §2

[15] = test system: Ipomoea hederacea; test: Post-emergence herbicidal activity test; conditions: 2-4 weeks after treatment
Method in brief: as §2

[16] = test system: Zea mays; test: Post-emergence herbicidal activity test; conditions: 2-4 weeks after treatment
Method in brief: as §2

[17] = test system: Echinochloa crus-galli; test: Post-emergence herbicidal activity test; conditions: 2-4 weeks after treatment
Method in brief: as §2

[18] = test system: Glycine max; test: Post-emergence herbicidal activity test; conditions: 2-4 weeks after treatment
Method in brief: as §2

[19] = test system: Triticum aestivum; test: Post-emergence herbicidal activity test; conditions: 2-4 weeks after treatment
Method in brief: as §2

[20] = test system: Ambrosia artemisifolia; test: Post-emergence herbicidal activity test; conditions: 2-4 weeks after treatment
Method in brief: as §2

[21] = test system: Abutilon theophrasti; test: Post-emergence herbicidal activity test; conditions: 2-4 weeks after treatment
Method in brief: as §2

[22] = test system: Stellaria media; test: Pre-emergence test; conditions: 0.400 kg/ha, 3 weeks after treatment
Method in brief: as §1

[23] = test system: Orysa sativa; test: Pre-emergence test; conditions: 0.400 kg/ha, 3 weeks after treatment
Method in brief: as §1

[24] = test system: Digitaria sanguinalis; test: Pre-emergence test; conditions: 0.400 kg/ha, 3 weeks after treatment
Method in brief: as §1

[25] = test system: Lamium purpureum; test: Pre-emergence test; conditions: 0.400 kg/ha, 3 weeks after treatment
Method in brief: as §1

[26] = test system: Galium aparine; test: Pre-emergence test; conditions: 0.400 kg/ha, 3 weeks after treatment
Method in brief: as §1

Cc1cc(C#Cc2ccc(F)cc2)nc(Oc2cc(C(F)(F)F)nn2C)c1 [Example 2, 4-methyl-6-(4-fluorophenylethynyl)-2-(1-methyl-3-trifluoromethylpyrazol-5-yloxy)-pyridine]
4 (4-Injury): Assessment (pre-emergence application) SETVI ([4]; 0.025 kg/ha) | Assessment (pre-emergence application) TRZWA ([9]; 0.400 kg/ha) | Post-emergence application SETVI ([14]; 0.025 kg/ha) | Post-emergence application ECHCG ([17]; 0.100 kg/ha) | Post-emergence application GLXMA ([18]; 0.025 kg/ha)
0 (0-No effect): Assessment (pre-emergence application) CASOB ([2]; 0.013 kg/ha) | Assessment (pre-emergence application) IPOHE ([5]; 0.013 kg/ha) | Assessment (pre-emergence application) ZEAMX ([6]; 0.013 kg/ha) | Assessment (pre-emergence application) ZEAMX ([6]; 0.025 kg/ha) | Assessment (pre-emergence application) GLXMA ([8]; 0.013 kg/ha) | Assessment (pre-emergence application) TRZWA ([9]; 0.013 kg/ha) | Assessment (pre-emergence application) TRZWA ([9]; 0.025 kg/ha) | Assessment (pre-emergence application) MBEL ([10]; 0.013 kg/ha) | Assessment (pre-emergence application) ABUTH ([11]; 0.013 kg/ha)
6 (6-Herbicidal effect): Assessment (pre-emergence application) IPOHE ([5]; 0.400 kg/ha) | Assessment (pre-emergence application) ECHCG ([7]; 0.100 kg/ha) | Assessment (pre-emergence application) MBEL ([10]; 0.100 kg/ha) | Post-emergence application ABUTH ([21]; 0.100 kg/ha)
3 (3-Moderate effect): Assessment (pre-emergence application) CASOB ([2]; 0.100 kg/ha) | Assessment (pre-emergence application) SETVI ([4]; 0.013 kg/ha) | Assessment (pre-emergence application) GLXMA ([8]; 0.400 kg/ha) | Assessment (pre-emergence application) ABUTH ([11]; 0.400 kg/ha) | Post-emergence application ALOMY ([13]; 0.100 kg/ha) | Post-emergence application ECHCG ([17]; 0.025 kg/ha) | Post-emergence application TRZWA ([19]; 0.400 kg/ha)
9 (9-Complete kill): Assessment (pre-emergence application) MATIN ([1]; 0.100 kg/ha) | Assessment (pre-emergence application) MATIN ([1]; 0.400 kg/ha) | Assessment (pre-emergence application) SETVI ([4]; 0.400 kg/ha) | Assessment (pre-emergence application) MBEL ([10]; 0.400 kg/ha) | Post-emergence application SETVI ([14]; 0.400 kg/ha) | Post-emergence application IPOHE ([15]; 0.400 kg/ha)
5 (5-Definite injury): Assessment (pre-emergence application) MATIN ([1]; 0.025 kg/ha) | Assessment (pre-emergence application) ALOMY ([3]; 0.100 kg/ha) | Post-emergence application MATIN ([12]; 0.100 kg/ha) | Post-emergence application ALOMY ([13]; 0.400 kg/ha) | Post-emergence application GLXMA ([18]; 0.100 kg/ha) | Post-emergence application AMBEL ([20]; 0.100 kg/ha)
8 (8-Approaching complete kill): Assessment (pre-emergence application) ALOMY ([3]; 0.400 kg/ha) | Assessment (pre-emergence application) SETVI ([4]; 0.100 kg/ha) | Post-emergence application MATIN ([12]; 0.400 kg/ha) | Post-emergence application ECHCG ([17]; 0.400 kg/ha) | Post-emergence application ABUTH ([21]; 0.400 kg/ha)
7 (7-Good herbicidal effect): Assessment (pre-emergence application) CASOB ([2]; 0.400 kg/ha) | Assessment (pre-emergence application) ECHCG ([7]; 0.400 kg/ha) | Post-emergence application SETVI ([14]; 0.100 kg/ha) | Post-emergence application IPOHE ([15]; 0.025 kg/ha) | Post-emergence application IPOHE ([15]; 0.100 kg/ha) | Post-emergence application GLXMA ([18]; 0.400 kg/ha) | Post-emergence application AMBEL ([20]; 0.400 kg/ha)
1 (1-Trace effect): Assessment (pre-emergence application) MATIN ([1]; 0.013 kg/ha) | Assessment (pre-emergence application) CASOB ([2]; 0.025 kg/ha) | Assessment (pre-emergence application) ALOMY ([3]; 0.013 kg/ha) | Assessment (pre-emergence application) IPOHE ([5]; 0.025 kg/ha) | Assessment (pre-emergence application) ZEAMX ([6]; 0.100 kg/ha) | Assessment (pre-emergence application) ECHCG ([7]; 0.013 kg/ha) | Assessment (pre-emergence application) GLXMA ([8]; 0.025 kg/ha) | Assessment (pre-emergence application) ABUTH ([11]; 0.025 kg/ha) | Post-emergence application ZEAMX ([16]; 0.025 kg/ha)
2 (2-Slight effect): Assessment (pre-emergence application) ALOMY ([3]; 0.025 kg/ha) | Assessment (pre-emergence application) IPOHE ([5]; 0.100 kg/ha) | Assessment (pre-emergence application) ZEAMX ([6]; 0.400 kg/ha) | Assessment (pre-emergence application) ECHCG ([7]; 0.025 kg/ha) | Assessment (pre-emergence application) GLXMA ([8]; 0.100 kg/ha) | Assessment (pre-emergence application) TRZWA ([9]; 0.100 kg/ha) | Assessment (pre-emergence application) MBEL ([10]; 0.025 kg/ha) | Assessment (pre-emergence application) ABUTH ([11]; 0.100 kg/ha) | Post-emergence application MATIN ([12]; 0.025 kg/ha) | Post-emergence application ALOMY ([13]; 0.025 kg/ha) | Post-emergence application ZEAMX ([16]; 0.100 kg/ha) | Post-emergence application ZEAMX ([16]; 0.400 kg/ha) | Post-emergence application TRZWA ([19]; 0.025 kg/ha) | Post-emergence application TRZWA ([19]; 0.100 kg/ha) | Post-emergence application AMBEL ([20]; 0.025 kg/ha) | Post-emergence application ABUTH ([21]; 0.025 kg/ha)

Cc1cc(C#C[Si](C)(C)C)nc(Oc2cc(C(F)(F)F)nn2C)c1 [Example 14]
3 (3-Moderate effect): Assessment (pre-emergence application) CASOB ([2]; 0.400 kg/ha) | Post-emergence application ALOMY ([13]; 0.200 kg/ha) | Post-emergence application SETVI ([14]; 0.200 kg/ha) | Post-emergence application AMBEL ([20]; 0.200 kg/ha)
9 (9-Complete kill): Assessment (pre-emergence application) STEME [22] | Assessment (pre-emergence application) DIGSA [24] | Assessment (pre-emergence application) MBEL ([10]; 0.400 kg/ha) | Assessment (pre-emergence application) LAMPU [25]
8 (8-Approaching complete kill): Assessment (pre-emergence application) MATIN ([1]; 0.400 kg/ha) | Post-emergence application IPOHE ([15]; 0.200 kg/ha)
4 (4-Injury): Post-emergence application GLXMA ([18]; 0.200 kg/ha)
0 (0-No effect): Assessment (pre-emergence application) ORYSA [23] | Assessment (pre-emergence application) ABUTH ([11]; 0.400 kg/ha)
1 (1-Trace effect): Assessment (pre-emergence application) IPOHE ([5]; 0.400 kg/ha) | Assessment (pre-emergence application) ZEAMX ([6]; 0.400 kg/ha) | Assessment (pre-emergence application) TRZWA ([9]; 0.400 kg/ha) | Assessment (pre-emergence application) GALAP [26] | Post-emergence application ZEAMX ([16]; 0.200 kg/ha) | Post-emergence application ECHCG ([17]; 0.200 kg/ha) | Post-emergence application TRZWA ([19]; 0.200 kg/ha) | Post-emergence application ABUTH ([21]; 0.200 kg/ha)
5 (5-Definite injury): Assessment (pre-emergence application) SETVI ([4]; 0.400 kg/ha) | Assessment (pre-emergence application) ECHCG ([7]; 0.400 kg/ha) | Post-emergence application MATIN ([12]; 0.200 kg/ha)
7 (7-Good herbicidal effect): Assessment (pre-emergence application) ALOMY ([3]; 0.400 kg/ha)
2 (2-Slight effect): Assessment (pre-emergence application) GLXMA ([8]; 0.400 kg/ha)
